This is an account of results in patent publication US20240025918A1, “KRAS G12D Inhibitors” (Jacobio Pharmaceuticals Co., Ltd, priority 2020, published 2024).

The structures appear in SMILES notation. pIC50: −log10 of the molar value.

In assay [1] the target is T1, GDP-loaded HIS-KRAS(G12D, aa 1-169) (Homo sapiens, UniProt P01116, G12D).
T1 construct: GDP-loaded HIS-KRAS(G12D, aa 1-169)
As to the kind of experiment: SOS1 catalyzed nucleotide exchange assay (TR-FRET). In kind it is biochemical. The conditions noted are these: 4 hours at 25° C. As to the method:
GDP-loaded HIS-KRAS(G12D, aa 1-169) was pre-incubated with a compound in the presence of 10 nM GDPin a 384-well plate (Greiner) for 15 min, then purified SOS1 ExD(Flag tag, aa 564-1049), BODIPY™ FL GTP (Invitrogen) and MAb (monoclonal antibody) Anti 6HIS-Tb cryptate Gold (Cisbio) were added to the assay wells (Final concentration: 1.5 nM GDP-loaded HIS-KRAS(G12D), 5 nM GDP, 0.5 μM SOS1 ExD, 80 nM BODIPY™ FL GTP, 52.5 ng/mL MAb Anti 6HIS-Tb cryptate Gold) and incubated for 4 hours at 25° C. Wells containing same percent of DMSO served as vehicle control, and wells without KRAS served as low control. TR-FRET signals were read on Tecan Spark multimode microplate reader. The parameters were F486: Excitation 340 nm, Emission 486 nm, Lag time 100 μs, Integration time 200 μs; F515: Excitation 340 nm, Emission 515 nm, Lag time 100 μs, Integration time 200 μs. TR-FRET ratios for each individual wells were calculated by equation: TR-FRET ratio=(Signal F515/Signal F486)*10000. The percent of activation of compounds treated wells were normalized between vehicle control and low control (% Activation=(TR-FRET ratioCompound treated−TR-FRET ratioLow control)/(TR-FRET ratioVehicle control−TR-FRET ratioLow control)*100%). Then the data were analyzed by fitting a 4-parameter logistic model or calculating in Excel to calculate IC50 values.

The next assay deals with AsPC-1. The assay is described as follows: Cell growth inhibition assay, AsPC-1 (CellTiter-Glo). In kind it is cell-based. The conditions noted are these: Homo sapiens, ASPC1, 144 h; AsPC-1 cell viability, 6 days incubation. As for the experimental part:
AsPC-1 cultured in RPMI-1640 medium (Gibco) containing 10% fetal bovine serum (Gibco). Cells in culture medium were plated in 96-well plates at a concentration of 1000 cells/well (100 μL/well) and allowed to attach overnight.
(§1) The next day, compounds were diluted in culture medium and added to the plates. After 6 days incubation in a 37° C./5% CO2 cell incubator, the cell viability was detected by CellTiter-Glo® Luminescent Cell Viability Assay kit (Promega). Luminescent signals were read on Tecan Spark multimode microplate reader and analyzed using a 4-parameter logistic model to calculate IC50 values.
In general terms: In ATP-based viability assays light output follows the ATP content of the culture.

Assay [2] concerns AGS cells expressing KRAS G12D. The assay is described as follows: Phospho-ERK1/2(THR202/TYR204) HTRF assay. The conditions noted are these: Homo sapiens; Phospho-ERK1/2 in AGS cells, 2 hours incubation. In kind it is cell-based. As to the method:
AGS cells expressing KRAS G12D were cultured in F12K medium (Gibco) containing 10% fetal bovine serum (Gibco). The AGS cells in culture medium were seeded in 96-well plates at a concentration of 40,000 cells/well and then put in a 37° C./5% CO2 cell incubator to incubate overnight. The next day, culture medium was removed and the compound diluted in assay medium (F12K, 0.1% FBS) was added in each well. After 2 hours incubation in a 37° C./5% CO2 cell incubator, the assay medium in 96-well plates was removed, then 50 μL of 1× blocking reagent-supplemented lysis buffer (Cisbio) was added and the plates were incubated at 25° C. for 45 min with shaking. 10 μL of cell lysates from the 96-well plates were transferred to a 384-well plate (Greiner) containing 2.5 μL/well HTRF® pre-mixed antibodies (Cisbio 64AERPEH). Incubate 4 hours at 25° C. and then read HTRF signals on Tecan Spark multimode microplate reader. The data were analyzed using a 4-parameter logistic model to calculate IC50 values.

For a further assay, the system named is AGS. As to the kind of experiment: Cell growth inhibition assay, AGS (CellTiter-Glo). Format: cell-based. The conditions noted are these: Homo sapiens, 144 h; AGS cell viability, 6 days incubation. As for the experimental part: AGS cultured in F12K medium (Gibco) containing 10% fetal bovine serum (Gibco). Cells in culture medium were plated in 96-well plates at a concentration of 500 cells/well (100 μL/well) and allowed to attach overnight.
as §1

The target of assay [3] is T2, GppNp-loaded HIS-KRAS(G12D, aa 1-169) and cRAF RBD (Homo sapiens, UniProt P01116, G12D).
T2 construct: GppNp-loaded HIS-KRAS(G12D, aa 1-169)
The assay is described as follows: GTP-KRAS and cRAF interaction assay (HTRF). Format: biochemical. The conditions noted are these: 2 hours at 25° C. As to the method: GppNp-loaded HIS-KRAS(G12D, aa 1-169) was pre-incubated with a compound in the presence of 200 μM GTP in a 384-well plate (Greiner) for 15 min, then cRAF RBD(GST tag, aa 50-132, CreativeBioMart), MAb Anti GST-d2 (Cisbio) and MAb Anti 6HIS-Tb cryptate Gold (Cisbio) were added to the assay wells (Final concentration: 2.0 nM GppNp-loaded HIS-KRAS(G12D), 100 μM GTP, 35 nM cRAF RBD, 1 μg/mL MAb Anti GST-d2, 52.5 ng/mL MAb Anti 6HIS-Tb cryptate Gold) and incubated for 2 hours at 25° C. Wells containing same percent of DMSO served as vehicle control, and wells without KRAS served as low control. HTRF signals were read on Tecan Spark multimode microplate reader and HTRF ratios were calculated under manufacturer's instructions. The percent of activation of compounds treated wells were normalized between vehicle control and low control (% Activation=(HTRF ratioCompound treated−HTRF ratioLow control)/(HTRF ratioVehicle control−HTRF ratioLow control)*100%). Then the data were analyzed by fitting a 4-parameter logistic model or calculating in Excel to calculate IC50 values.

T1 sequence (P01116 1-169 isoform P01116-2 G12D): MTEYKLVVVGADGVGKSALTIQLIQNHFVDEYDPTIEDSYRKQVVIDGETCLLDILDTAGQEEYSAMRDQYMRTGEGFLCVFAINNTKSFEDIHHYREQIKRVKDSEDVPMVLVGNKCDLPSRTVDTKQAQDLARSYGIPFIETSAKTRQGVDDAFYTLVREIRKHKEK
T2 sequence (P01116 1-169 isoform P01116-2 G12D): as above

Turning to `C#Cc1cccc2cc(O)cc(-c3c(F)cc4c(N5CC6CCC(C5)N6)nc(OCC5(CN6CCC7(CC6)CC7)CC5)nc4c3F)c12` [Compound 28], the pIC50 in assay [1] is 8.75; with AsPC-1, 7.01; in assay [2], 7.58; with AGS it was 8.08; in assay [3], 7.28.

On to `C#Cc1cccc2cc(O)cc(-c3ccc4c(N5CC6CCC(C5)N6)nc(OCC5(CN6CCC7(CC6)CC7)CC5)nc4c3F)c12` [Compound 30], for which the pIC50 in assay [1] was 7.54; with AsPC-1, 7.09; in assay [2], 7.50; in the assay with AGS, 8.01; in assay [3], 6.88.

As to `C#Cc1cccc2cc(O)cc(-c3ccc4c(N5CC6CCC(C5)N6)nc(OCC5(CN6CC(OC)C6)CC5)nc4c3F)c12` [Compound 31], the pIC50 is 7.63 in assay [1]; 6.67 in the assay on AsPC-1; 7.87 in assay [2]; 7.58 in the assay with AGS; 6.97 in assay [3].

As for `C#Cc1cccc2cc(O)cc(-c3ccc4c(N5CC6CCC(C5)N6)nc(OCC5(CN6CC7CCCC7C6)CC5)nc4c3F)c12` (stereo not drawn) [Compound 32], the pIC50 in assay [1] was 7.45; in the assay on AsPC-1, 7.17; in assay [2], 7.46; in the assay with AGS, 8.05; in assay [3], 7.03.

For `C#Cc1cccc2cc(O)cc(-c3ccc4c(N5CC6CCC(C5)N6)nc(OCC5(CN6CC(C)(OC)C6)CC5)nc4c3F)c12` [Compound 33], the pIC50 is 7.50 in assay [1]; 6.82 in the assay on AsPC-1; 7.89 in assay [2]; 7.82 with AGS; 6.90 in assay [3].

With `C#Cc1cccc2cc(O)cc(-c3c(F)cc4c(N5CC6CCC(C5)N6)nc(OCC5(CN6CCC7(CCCCO7)C6)CC5)nc4c3F)c12` (stereo not drawn) [Compound 34], the pIC50 was 8.51 in assay [1]; 6.68 in the assay on AsPC-1; 7.41 in assay [2]; 7.77 with AGS; 7.08 in assay [3].

Regarding `C#Cc1cccc2cc(O)cc(-c3c(F)cc4c(N5CC6CCC(C5)N6)nc(OCC5(CN6CCOCC67CCC7)CC5)nc4c3F)c12` [Compound 35], the pIC50 in assay [1] was 8.66; in the assay on AsPC-1, 7.22; in assay [2] it was 7.69; in the assay with AGS, 8.07; in assay [3], 6.80.

As for `C#Cc1cccc2cc(O)cc(-c3c(F)cc4c(N5CC6CCC(C5)N6)nc(OCC5(CN6C[C@H]7C[C@@H]6CO7)CC5)nc4c3F)c12` [Compound 36], the pIC50 was 8.68 in assay [1]; 7.11 in the assay with AsPC-1; 8.51 in assay [2]; 8.06 in the assay on AGS; 7.45 in assay [3].

With `C#Cc1cccc2cc(O)cc(-c3c(F)cc4c(N5CC6CCC(C5)N6)nc(OCC5(CN6CCCOCC6)CC5)nc4c3F)c12` [Compound 37], the pIC50 in assay [1] is 8.36; in the assay on AsPC-1 it was 7.05; in assay [2] it was 7.96; in the assay on AGS, 8.19; in assay [3], 7.30.

Take `C#Cc1cccc2cc(O)cc(-c3c(F)cc4c(N5CC6CCC(C5)N6)nc(OCC5(CN6CCC7(CCOC7)C6)CC5)nc4c3F)c12` (stereo not drawn) [Compound 45]: the pIC50 in assay [1] was 7.58; in the assay on AsPC-1, 6.19; in assay [2] it was 6.90; in the assay with AGS, 7.13; in assay [3] it was 6.39.

In the case of `C#Cc1cccc2cc(O)cc(-c3c(F)cc4c(N5CC6CCC(C5)N6)nc(OCC5(CN6CC7(CCOC7)C6)CC5)nc4c3F)c12` [Compound 46], the pIC50 was 8.23 in assay [1]; 6.31 in the assay on AsPC-1; 7.64 in assay [2]; 7.26 in the assay with AGS; 6.62 in assay [3].

On to `C#Cc1cccc2cc(O)cc(-c3c(F)cc4c(N5CC6CCC(C5)N6)nc(OCC5(CN6CCC7(CCCO7)C6)CC5)nc4c3F)c12` (stereo not drawn) [Compound 47], for which the pIC50 in assay [1] is 8.59; in the assay with AsPC-1 it was 6.64; in assay [2] it was 7.50; with AGS it was 7.54; in assay [3] it was 7.04.

`C#Cc1cccc2cc(O)cc(-c3c(F)cc4c(N5CC6CCC(C5)N6)nc(OCC5(CN6CC7(CCCCO7)C6)CC5)nc4c3F)c12` [Compound 48]: the pIC50 in assay [1] is 8.83; with AsPC-1 it was 6.50; in assay [2], 7.41; in the assay with AGS, 7.44; in assay [3], 6.93.

With `C#Cc1cccc2cc(O)cc(-c3c(F)cc4c(N5CC6CCC(C5)N6)nc(OCC5(CN6C[C@@H]7OCCO[C@@H]7C6)CC5)nc4c3F)c12` [Compound 50], the pIC50 is 8.86 in assay [1]; 7.15 in the assay with AsPC-1; 8.03 in assay [2]; 8.46 in the assay on AGS; 7.37 in assay [3].

For the compound `C#Cc1cccc2cc(O)cc(-c3c(F)cc4c(N5CC6CCC(C5)N6)nc(OCC5(CN6C7CCC6CC(=O)C7)CC5)nc4c3F)c12` [Compound 51], the pIC50 in assay [1] was 8.90; in the assay with AsPC-1 it was 7.18; in assay [2], 7.92; in the assay on AGS, 8.90; in assay [3] it was 7.23.

As for `C#Cc1cccc2cc(O)cc(-c3c(F)cc4c(N5CC6CCC(C5)N6)nc(OCC5(CN6CCc7sccc7C6)CC5)nc4c3F)c12` [Compound 52], the pIC50 is 8.37 in assay [1]; 7.03 in the assay with AsPC-1; 6.57 in assay [2]; 7.49 with AGS; 6.54 in assay [3].

For the compound `C#Cc1cccc2cc(O)cc(-c3c(F)cc4c(N5CC6CCC(C5)N6)nc(OCC5(CN6CCC7(CCOCC7)C6)CC5)nc4c3F)c12` [Compound 55], the pIC50 in assay [1] was 8.86; with AsPC-1, 7.11; in assay [2], 8.27; with AGS, 8.11; in assay [3] it was 7.64.

`C#Cc1cccc2cc(O)cc(-c3c(F)cc4c(N5CC6CCC(C5)N6)nc(OCC5(CN6CC7(CCO7)C6)CC5)nc4c3F)c12` [Compound 56]: the pIC50 was 8.69 in assay [1]; 6.74 in the assay with AsPC-1; 8.12 in assay [2]; 7.83 in the assay with AGS; 7.27 in assay [3].

As a reminder, the pIC50 is the IC50 on a negative log10 scale, so that one unit is a factor of ten. High values mean a low IC50, low ones a high IC50.
